Assay [1] deals with mouse neuroblastoma cell strain N1E-115. Kind of assay: Inhibitory effect on neurite retraction (LPA-induced). In kind it is cell-based. The conditions noted are these: mouse/rat NG108-15; 10 μM compound, 1 μM LPA, N1E-115 cells. How it is done:
An experiment for Inhibitory effect on neurite retraction using mouse neuroblastoma cell strain N1E-115 was performed according to the method of Hirose, M. et al. (J. Cell. Biol., 141, pp. 1625-1636 (1998)). This method utilizes the fact that LPA (lysophosphatidic acid), which is a endogenous substance, induces neurite retraction, and is a method of evaluating how much a drug can inhibit the LPA-induced neurite retraction and thereby evaluating potency of inhibition of neuronal degeneration and potency of neuronal regeneration of the drug. N1E-115 cells cultured in a DMEM solution containing 20% heat-inactivated fetal bovine serum were plated on a 6-well plate (IWAKI) at a density of 40,000 cells/well, and cultured overnight at 37° C. in the same culture medium in a 5% CO2 incubator. In order to induce differentiation of the N1E 115 cells into nerve cells, the culture medium was changed to the serum-free DMEM solution, and the cells were cultured for 1 or 2 days at 37° C. in the 5% CO2 incubator until most of the cells extended the neurites. On the examination day, each compound of the present invention was added at a final concentration of 10 μM, incubation was performed for 30 minutes, then LPA (Sigma) was added at a final concentration of 1 μM, and incubation was further performed for 10 minutes. To the control, the same volume of phosphate buffered saline as the solvent was added. After completion of the incubation, glutaraldehyde was added at a final concentration of 5% to fix the cells. […] The inhibition rate (%) of each drug was calculated by using the following equation. Inhibition rate(%)=100−(RCP obtained with drug to be evaluated−RCP of control)/(RCP obtained with LPA−RCP of control)×100

The next assay has as its target T1, human ROCK1 (Homo sapiens, UniProt Q13464).
T1 construct: His tag (N); host or cells: insect cells (Sf9)
In words: Measurement of Rho kinase inhibitory activity (ELISA of MBS phosphorylation). In kind it is biochemical. The conditions noted are these: human ROCK1, MBS substrate, 100 μM ATP, 30° C. for 10 minutes. In short, it runs like this:
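N-terminal His-tagged human ROCK1 (1-727, Sf9-expressed) phosphorylated plate-immobilized MBS in 20 mM HEPES pH 7.5, 100 μM ATP, 30° C for 10 minutes. Phospho-MBS detected by antibody ELISA (A490); IC50 is concentration giving 50% inhibition.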
(In general: ELISA stands for enzyme-linked immunosorbent assay.)

Assay [2] deals with rabbit normal intraocular pressure. Kind of assay: Intraocular pressure reducing action. The conditions noted are these: Oryctolagus cuniculus, topical, read-out: intraocular pressure reducing degree; for inhibition in vivo at 3000 µM: 3 mM aqueous solution, 50 μl to the left eye, max IOP reduction (2, 4, 6 hours) / value immediately before administration; for inhibition in vivo at 1000 µM: test compound of 1 mM, same test as Test Example 3. In kind it is in vivo, Japanese white rabbit. In short, it runs like this:
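Japanese white rabbits (~2 kg) under topical anaesthesia received 50 μl of a 3 mM aqueous test solution in the left eye, right eye untreated. IOP read by tonometer before and at 2, 4, 6 h; maximal left–right difference divided by pre-dose IOP ×100 gives % reduction.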

A value given as a limit tells only on which side of the number the result lay.

T1 sequence (Q13464 1-727): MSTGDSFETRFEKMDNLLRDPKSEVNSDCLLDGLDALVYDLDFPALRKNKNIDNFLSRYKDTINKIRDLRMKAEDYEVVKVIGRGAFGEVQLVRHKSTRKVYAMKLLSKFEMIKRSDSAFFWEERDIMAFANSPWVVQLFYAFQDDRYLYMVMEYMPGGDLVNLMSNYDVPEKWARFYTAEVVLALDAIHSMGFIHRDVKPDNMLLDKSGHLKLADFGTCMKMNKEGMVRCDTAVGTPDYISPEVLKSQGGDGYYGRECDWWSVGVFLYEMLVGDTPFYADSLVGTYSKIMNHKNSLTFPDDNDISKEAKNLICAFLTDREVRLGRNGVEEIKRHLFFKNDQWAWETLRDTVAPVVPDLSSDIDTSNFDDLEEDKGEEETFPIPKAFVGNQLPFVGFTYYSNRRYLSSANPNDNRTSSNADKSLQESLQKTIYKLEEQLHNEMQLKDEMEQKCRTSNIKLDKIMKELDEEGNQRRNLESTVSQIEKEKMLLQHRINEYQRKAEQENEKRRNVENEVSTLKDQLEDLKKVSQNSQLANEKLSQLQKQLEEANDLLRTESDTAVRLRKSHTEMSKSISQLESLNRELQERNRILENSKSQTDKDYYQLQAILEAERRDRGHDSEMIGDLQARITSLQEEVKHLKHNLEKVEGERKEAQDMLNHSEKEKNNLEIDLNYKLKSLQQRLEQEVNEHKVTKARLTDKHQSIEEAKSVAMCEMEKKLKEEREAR

Broadly, the inhibition is the change of the read-out against control, counted positive when it falls. In general, IC50 refers to the point on the concentration scale where inhibition reaches its midpoint. Low values mean higher potency, high ones lower potency. The compound `CN[C@H]1CCN(S(=O)(=O)c2cccc3cncc(C)c23)C1` [Example 8-3] showed an inhibition at 10 µM in assay [1] of no less than 50%. At human ROCK1, the IC50 is less than 1 µM. In assay [2], the inhibition in vivo at 3000 µM was no less than 20% and the inhibition in vivo at 1000 µM is no less than 20%.
For the compound `N[C@H]1CCN(S(=O)(=O)c2cccc3cncc(Cl)c23)C1` [Example 19-1, (S)-3-Amino-1-(4-chloro-5-isoquinolinesulfonyl)pyrrolidine], the inhibition at 10 µM in assay [1] is no less than 50%. In addition, the IC50 at human ROCK1 was less than 1 µM. Further, the inhibition in vivo at 3000 µM in assay [2] is no less than 20%.
`CN[C@H]1CCN(S(=O)(=O)c2cccc3cncc(Cl)c23)C1` [Example 19-3, (S)-1-(4-Chloro-5-isoquinolinesulfonyl)-3-(methylamino)pyrrolidine]: in assay [1], the inhibition at 10 µM was no less than 50%. Also, the IC50 against human ROCK1 is less than 1 µM. In assay [2], the inhibition in vivo at 3000 µM is no less than 20% and the inhibition in vivo at 1000 µM was no less than 20%.
On to `CN[C@H]1CCN(S(=O)(=O)c2cccc3c(O)ncc(Cl)c23)C1` [Example 36-1, (S)-1-(1-Hydroxy-4-chloro-5-isoquinolinesulfonyl)-3-(methylamino)pyrrolidine], for which, in assay [1], the inhibition at 10 µM was no less than 50%. Also, the IC50 at human ROCK1 was less than 1 µM. For the same compound, the inhibition in vivo at 3000 µM in assay [2] is 10 to 20%.

The values above are taken from patent publication US7964613B2 (Asahi Kasei Pharma Corporation, priority 2007, dated 2011).
